Literature values, collected in article PMC8217170, “Phase Ib dose-escalation study of the hypoxia-modifier Myo-inositol trispyrophosphate in patients with hepatopancreatobiliary tumors” (Nature Communications, 2021).

Experiments:
hepatocellular carcinoma = test system: hepatocellular carcinoma; set-up: method as in ref 10 (supplementary references); settings: syngeneic, orthotopic rat model of hepatocellular carcinoma; ref 10 (supplementary references); cited from earlier work
pancreatic carcinoma = test system: pancreatic carcinoma; set-up: method as in ref 15 (supplementary references); settings: 100 mg/kg gemcitabine; ref 15 (supplementary references); cited from earlier work

COc1cccc2c1C(=O)c1c(O)c3c(c(O)c1C2=O)C[C@@](O)(C(=O)CO)C[C@@H]3O[C@H]1C[C@H](N)[C@H](O)[C@H](C)O1 [doxorubicin, reference compound]
Rats alive after 100 days (hepatocellular carcinoma): one out of ten

Nc1ccn([C@@H]2O[C@H](CO)[C@@H](O)C2(F)F)c(=O)n1 [gemcitabine, reference compound]
Survival (pancreatic carcinoma): 63 days
